Experiments:
[1] = test system: large intestine cancer patients; experiment: Treatment of large intestine cancer patients (Example 2); type: in vivo, human; settings: Table 2
Description: Next, treatment of 11 large intestine cancer patients is described.
In principle, the same as Example 1.
The following is course of treatment of the large intestine cancer patients.

[2] = cited from earlier work

For O=C1O[C@H]([C@@H](O)CO)C(O)=C1O [vitamin C, ascorbic acid], the Alive or dead [1] is given as “Alive”, the stability to heat ([2]; heat) is given as “weak to heat” and the oxidation reduction potential ([2]; pH 7.0) is given as “+0.058 V”.

From patent US20110092548A1, “METHOD FOR TREATING/PREVENTING DISEASE USING COGNITIVE ABILITY OF CEREBRUM AND PHARMACEUTICAL” (priority 2006, published 2011)
